Square brackets hold non-standard residues; d marks the D form. Peptide text beside a SMILES is read from it. * marks the point of attachment. Lauroyl = CCCCCCCCCCCC(=O)*
Experiments:
[1] = test system: P. aeruginosa 100036 (MDR/XDR); assay: microbe, parasite or virus in culture; conditions: P. aeruginosa 100036; for MIC (agent alone): antibiotic or lipopeptide alone
Procedure: (§1) We evaluated the activity of SPRLPs in combination with fifteen clinically-used antibiotics against P. aeruginosa. Antibiotics tested included fluoroquinolones (moxifloxacin, ciprofloxacin and levofloxacin), aminoglycosides (gentamicin, tobramycin and amikacin), cephalosporins (ceftazidime and cefotaxime), carbapenems (meropenem and doripenem), aztreonam, rifampicin, minocycline, colistin and fosfomycin. The SPRLPs were screened initially at a fixed concentration of 8 μg/mL (5 μM) in combination with antibiotics against wild-type P. aeruginosa PAO1. We assessed potentiation by at least a four-fold absolute MIC reduction of the antibiotic, after which synergism was further validated by a conventional checkerboard assay. A fractional inhibitory concentration (FIC) index of ≤0.5, 0.5<x≤4 or >4 was interpreted as synergistic, indifferent or antagonistic interaction, respectively (31). FIC index was obtained by adding the FIC values of the antibiotic and the SPRLP adjuvant. FIC of antibiotics was calculated by dividing the MIC of the antibiotic in the presence of the adjuvant by the MIC of the antibiotic alone. Similarly, the FIC of adjuvant was calculated via dividing the MIC of the adjuvant in the presence of the antibiotic by the MIC of the adjuvant alone.
(§2) Isolates used in this study were either obtained from the American Type Culture Collection (ATCC), the Canadian National Intensive Care Unit (CAN-ICU) surveillance study (27) or the Canadian Ward Surveillance (CANWARD) study (28). Clinical isolates belonging to the CAN-ICU and CANWARD studies were recovered from patients suffering a presumed infectious disease entering or admitted in a participating medical center across Canada during the time of study. MDR P. aeruginosa strains in this study refer to those that are resistant to aminoglycosides, fluoroquinolones, cephalosporins, and carbapenems while XDR strains are those that are resistant to aminoglycosides, fluoroquinolones, cephalosporins, carbapenems, aztreonam and penicillin+β-lactamase inhibitor combination (39, 40).
(§3) Microbroth dilution susceptibility test following the Clinical and Laboratory Standards Institute (CLSI) guidelines (32) was performed to assess the in vitro antibacterial activity of SPRLPs. Overnight grown bacterial cultures were diluted in saline to achieve a 0.5 McFarland turbidity, followed by 1:50 dilution in Mueller-Hinton broth (MHB) for inoculation to a final concentration of 5×10^5 colony forming units/mL. The assay was done on a 96-well plate to which the agents of interest were 2-fold serially diluted in MHB and incubated with equal volumes of inoculum at 37° C. for 18 hours. MIC was determined as the lowest concentration to inhibit visible bacterial growth in form of turbidity, which was confirmed using EMax Plus microplate reader (Molecular Devices, USA) at a wavelength of 590 nm. The well containing MHB broth with or without bacterial cells was used as positive or negative control, respectively.
(§4) The assay was performed on a 96-well plate, to which the agents of interest was 2-fold serially diluted in working MHB. Prior to serial dilution, SPRLP was added to the working MHB media so that a fixed final concentration of 8 μg/mL (5 μM) SPRLP per well was achieved. To ensure that the assay was working, the MIC determination test of the studied antibiotic (without SPRLP) was included on the same plate. Similar MIC results between the assay comparator and an independent MIC determination test (on a different plate) ensured validity of the synergy test. Overnight grown bacterial cultures were diluted in saline to 0.5 McFarland turbidity, followed by 1:50 dilution in MHB (without SPRLP) and inoculation into each well to a final concentration of approximately 5×10^5 colony forming units/mL. Wells containing only MHB (without SPRLP) with or without bacterial cells were used as positive or negative control, respectively.

[2] = test system: P. aeruginosa 101243 (colistin-resistant, MDR/XDR); assay: microbe, parasite or virus in culture
Procedure: as §1, §2, §3, §4

[3] = test system: P. aeruginosa 101885 (MDR/XDR); assay: microbe, parasite or virus in culture
Procedure: as §1, §2, §3, §4

[4] = test system: P. aeruginosa 259-96918 (MDR/XDR); assay: microbe, parasite or virus in culture; conditions: P. aeruginosa 259-96918; for MIC (agent alone): antibiotic or lipopeptide alone
Procedure: as §1, §2, §3, §4

[5] = test system: P. aeruginosa 260-97103 (MDR/XDR); assay: microbe, parasite or virus in culture
Procedure: as §1, §2, §3, §4

[6] = test system: P. aeruginosa 262-101856 (MDR/XDR); assay: microbe, parasite or virus in culture; conditions: P. aeruginosa 262-101856; for Absolute MIC MIN: MIC of minocycline in the presence of 8 μg/mL (5 μM) lipopeptide; for MIC (agent alone): antibiotic or lipopeptide alone
Procedure: as §1, §2, §3, §4

[7] = test system: P. aeruginosa 264-104354 (MDR/XDR); assay: microbe, parasite or virus in culture; conditions: P. aeruginosa 264-104354; for MIC (agent alone): antibiotic or lipopeptide alone
Procedure: as §1, §2, §3, §4

[8] = test system: P. aeruginosa 91433 (colistin-resistant, MDR/XDR); assay: microbe, parasite or virus in culture; conditions: P. aeruginosa 91433 (colistin-resistant); for MIC (agent alone): antibiotic or lipopeptide alone
Procedure: as §1, §2, §3, §4

[9] = test system: wild-type and MDR/XDR P. aeruginosa clinical isolates; conditions: for interaction with minocycline (in words) / interaction with rifampicin (in words): checkerboard assay, P. aeruginosa; for MIC (lipopeptide alone): wild-type and clinical isolates of P. aeruginosa
[10] = MIC of minocycline in the presence of 8 μg/mL (5 μM) lipopeptide
[11] = MIC of rifampicin in the presence of 8 μg/mL (5 μM) lipopeptide
[12] = degree of minocycline potentiation in the presence of 8 μg/mL (5 μM) lipopeptide
[13] = degree of rifampicin potentiation in the presence of 8 μg/mL (5 μM) lipopeptide
[14] = P. aeruginosa 101243 (colistin-resistant), degree of minocycline potentiation in the presence of 8 μg/mL (5 μM) lipopeptide
[15] = P. aeruginosa 101243 (colistin-resistant), degree of rifampicin potentiation in the presence of 8 μg/mL (5 μM) lipopeptide
[16] = P. aeruginosa 101885, degree of minocycline potentiation in the presence of 8 μg/mL (5 μM) lipopeptide
[17] = P. aeruginosa 101885, degree of rifampicin potentiation in the presence of 8 μg/mL (5 μM) lipopeptide
[18] = P. aeruginosa 260-97103, degree of minocycline potentiation in the presence of 8 μg/mL (5 μM) lipopeptide
[19] = P. aeruginosa 260-97103, degree of rifampicin potentiation in the presence of 8 μg/mL (5 μM) lipopeptide

Compound: CCCCCCCCCCCC(=O)N1CCC[C@@H]1C(=O)N[C@H](CCCNC(=N)N)C(=O)N1CCC[C@@H]1C(=O)N[C@H](CCCNC(=N)N)C(=O)N1CCC[C@@H]1C(=O)N[C@H](CCCNC(=N)N)C(=O)N1CCC[C@@H]1C(N)=O [C12-prp] (Lauroyl-[dP][dR][dP][dR][dP][dR][dP]-NH2)
- Absolute MIC MIN [1, 10]: 8 µg/mL
- Absolute MIC RMP [1, 11]: 4 µg/mL
- MIC (agent alone) [1]: >128 µg/mL
- Potentiation [1, 12]: 2-fold
- Potentiation [1, 13]: 4-fold
- Absolute MIC MIN ([2]; P. aeruginosa 101243 (colistin-resistant), MIC of minocycline in the presence of 8 μg/mL (5 μM) lipopeptide): 2 µg/mL
- Absolute MIC RMP ([2]; P. aeruginosa 101243 (colistin-resistant), MIC of rifampicin in the presence of 8 μg/mL (5 μM) lipopeptide): 0.5 µg/mL
- MIC (agent alone) ([2]; P. aeruginosa 101243 (colistin-resistant), antibiotic or lipopeptide alone): >128 µg/mL
- Potentiation [2, 14]: 2-fold
- Potentiation [2, 15]: 8-fold
- Absolute MIC MIN ([3]; P. aeruginosa 101885, MIC of minocycline in the presence of 8 μg/mL (5 μM) lipopeptide): 8 µg/mL
- Absolute MIC RMP ([3]; P. aeruginosa 101885, MIC of rifampicin in the presence of 8 μg/mL (5 μM) lipopeptide): 4 µg/mL
- MIC (agent alone) ([3]; P. aeruginosa 101885, antibiotic or lipopeptide alone): >128 µg/mL
- Potentiation [3, 16]: 2-fold
- Potentiation [3, 17]: 4-fold
- Absolute MIC MIN [4, 10]: 4 µg/mL
- Absolute MIC RMP [4, 11]: 2 µg/mL
- MIC (agent alone) [4]: >128 µg/mL
- Potentiation [4, 12]: 4-fold
- Potentiation [4, 13]: 8-fold
- Absolute MIC MIN ([5]; P. aeruginosa 260-97103, MIC of minocycline in the presence of 8 μg/mL (5 μM) lipopeptide): 2 µg/mL
- Absolute MIC RMP ([5]; P. aeruginosa 260-97103, MIC of rifampicin in the presence of 8 μg/mL (5 μM) lipopeptide): 4 µg/mL
- MIC (agent alone) ([5]; P. aeruginosa 260-97103, antibiotic or lipopeptide alone): >128 µg/mL
- Potentiation [5, 18]: 8-fold
- Potentiation [5, 19]: 4-fold
- Absolute MIC MIN [6]: 16 µg/mL
- Absolute MIC RMP [6, 11]: 256 µg/mL
- MIC (agent alone) [6]: >128 µg/mL
- Potentiation [6, 12]: 4-fold
- Potentiation [6, 13]: 2-fold
- Absolute MIC MIN [7, 10]: 4 µg/mL
- Absolute MIC RMP [7, 11]: 2 µg/mL
- MIC (agent alone) [7]: >128 µg/mL
- Potentiation [7, 12]: 8-fold
- Potentiation [7, 13]: 4-fold
- Absolute MIC MIN [8, 10]: 4 µg/mL
- Absolute MIC RMP [8, 11]: 2 µg/mL
- MIC (agent alone) [8]: >128 µg/mL
- Potentiation [8, 12]: 8-fold
- Potentiation [8, 13]: 8-fold
- interaction with minocycline (in words) [9]: potentiated
- interaction with rifampicin (in words) [9]: potentiated
- MIC (lipopeptide alone) [9]: > 128 µg/mL

Compound: CCCCCCCCCCCC(=O)N1CCC[C@H]1C(=O)N[C@@H](CCCNC(=N)N)C(=O)N1CCC[C@H]1C(=O)N[C@@H](CCCNC(=N)N)C(=O)N1CCC[C@H]1C(=O)N[C@@H](CCCNC(=N)N)C(=O)N1CCC[C@H]1C(N)=O [Compound C12-PRP, CH3(CH2)10CO-PRPRPRP-NH2] (Lauroyl-PRPRPRP-NH2)
- MIC (agent alone) [1]: >128 µg/mL
- Potentiation [1, 12]: 4-fold
- Potentiation [1, 13]: 16-fold
- MIC (agent alone) ([2]; 101243 (colistin-resistant, MDR/XDR)): 128 µg/mL
- Potentiation [2, 14]: 4-fold
- Potentiation [2, 15]: 32-fold
- FIC index ([2]; P. aeruginosa 101243 (colistin-resistant), lipopeptide in combination with minocycline (MIN)): 0.31
- FIC index ([2]; P. aeruginosa 101243 (colistin-resistant), lipopeptide in combination with rifampicin (RMP)): 0.09
- MIC (agent alone) ([3]; 101885 (MDR/XDR)): 64 µg/mL
- Potentiation [3, 16]: 4-fold
- Potentiation [3, 17]: 8-fold
- FIC index ([3]; P. aeruginosa 101885, lipopeptide in combination with minocycline (MIN)): 0.37
- FIC index ([3]; P. aeruginosa 101885, lipopeptide in combination with rifampicin (RMP)): 0.25
- MIC (agent alone) [4]: >128 µg/mL
- Potentiation [4, 12]: 8-fold
- Potentiation [4, 13]: 8-fold
- MIC (agent alone) ([5]; 260-97103 (MDR/XDR)): 128 µg/mL
- Potentiation [5, 18]: 16-fold
- Potentiation [5, 19]: 8-fold
- FIC index ([5]; P. aeruginosa 260-97103, lipopeptide in combination with minocycline (MIN)): 0.12
- FIC index ([5]; P. aeruginosa 260-97103, lipopeptide in combination with rifampicin (RMP)): 0.16
- Absolute MIC MIN [6]: 16 µg/mL
- MIC (agent alone) [6]: >128 µg/mL
- Potentiation [6, 12]: 4-fold
- Potentiation [6, 13]: none
- MIC (agent alone) [7]: >128 µg/mL
- Potentiation [7, 12]: 16-fold
- Potentiation [7, 13]: 16-fold
- MIC (agent alone) [8]: >128 µg/mL
- Potentiation [8, 12]: 4-fold
- Potentiation [8, 13]: 16-fold
- strains in which MIC of rifampicin reached susceptibility breakpoint ([9]; 8 μg/mL (5 μM) lipopeptide, breakpoint ≤1 μg/mL (CLSI, Staphylococcus spp.)): five out of nine
- strains in which MIC of minocycline was reduced below susceptibility breakpoint ([9]; 8 μg/mL (5 μM) lipopeptide, breakpoint ≤4 μg/mL (CLSI, Acinetobacter spp.)): seven out of nine
- interaction with minocycline (in words) [9]: strongly synergistic
- interaction with rifampicin (in words) [9]: significant potentiation
- MIC (lipopeptide alone) [9]: inactive

From patent publication US20200407398A1, “Short Proline-Rich Lipopeptide Potentiates Minocycline and Rifampicin Against Multidrug-and Extensively Drug-Resistant Pseudomonas Aeruginosa” (priority 2018, published 2020)
